18 molecules from patent publication US9018203B2, “Pharmaceutical composition of salicylanilide-derived small molecules and preparation and application thereof” (National Defense Medical Center, priority 2012, dated 2015) can be followed below.

The subject of data set [1] is RAW 264.7 cells. Kind of data set: TRAP staining and activity assay of RANKL-induced osteoclastogenesis. Format: cell-based, murine. The settings on record: 10 μM compound; for Osteoclastogenesis: TRAP+ MNCS at 10 μM (%): 100 ng/mL RANKL, 5 days, relative to RANKL without drug; for Inhibitory activity on osteoclastogenesis (in words) / Inhibition of osteoclast differentiation, TRAP staining (FIG. 1 C, D, E): RANKL. As to the method: The murine RAW 264.7 cell was an osteoclast precursor cell. RAW 264.7 cells were cultured in DMEM (Gibco BRL), 10% FBS, Penicillin (100 U/L), Streptomycin (100 U/L), 5% CO2, 37° C. To induce the murine RAW 264.7 cells differentiation, the cells were cultured in 96-well culture dish 10^4 cell per dish with α-MEM, 10% FBS, 2 mM L-glutamate, Penicillin (100 U/L), Streptomycin (100 U/L), with or without 100 ng/mL RANKL for 5 days, and added or not added tested drug, replaced the fresh medium at 3 day. The cells were TRAP^+ stained and analyzed the activity, then washed the cells by PBS and fixed by 3.7% formaldehyde for 30 minutes, then washed by PBS. The cells were reacted in Leukocyte Acid Phosphatase Assay kit (Sigma) at 37° C. for 1 hr, and washed by distilled water for three times and counted the multinucleated cells numbers by microscopy.
After treatment with RANKL and 10 μM compounds in RAW 264.7, the osteoclasts were counted percentage of the TRAP^+ cells (TRAP^+ MNCS %, the denominator was the number of cells which was treated with RANKL but without drug, and the numerator was the number of cells which was treated with RANKL and drug).

In data set [2] the test system is RAW 264.7 cells. Kind of data set: MTT cell viability assay in RAW 264.7 cells. Format: cell-based, murine. The settings on record: 24 hr; for Cell viability: Survival rate at 10 μM (%): 10 μM compound; for CC50: read-out: Cell viability: CC50 (cytotoxic concentration that produces 50% cell survival). The procedure: (§1) Cell viability was measured by MTT assay in RAW 264.7 cells upon treatment with 10 μM compounds for 24 hr. CC50 (the cytotoxic concentration that produces 50% cell survival) were identified in this example.

The nature of data set [3]: MTT cell viability assay in RAW 264.7 cells. The data set is classed as cell-based, murine. As to conditions: mouse; for CC50 at 24 hr: read-out: Cell viability: CC50 (cytotoxic concentration that produces 50% cell survival); for viability at 24 hr, 10 µM: 10 μM compound, read-out: Cell viability: Survival rate at 10 μM (%). The procedure:
as §1

The subject of data set [4] is RAW 264.7 cells. Briefly: Pit formation assay (bone resorption). As to conditions: RANKL, 10 μM compound. The data set is classed as cell-based, murine. The procedure: In pit formation assay, RAW 264.7 cells were cultured in DMEM (Gibco BRL) 10% FBS, Penicillin (100 U/L), streptomycin (100 U/L), 5% CO2 at 37° C. To induce the murine RAW 264.7 cell differentiation, the cells were cultured in 96-well culture dish 10^4 cell per dish with α-MEM, 10% FBS, 2 mM L-glutamate, Penicillin (100 U/L), Streptomycin (100 U/L), with or without 100 ng/mL RANKL for 5 days in the present or absent tested drug, replaced the fresh medium at 3 day. The 24-well plate were washed by PBS and added in 0.5 mL/well chloride solution, stood at room-temperature for 10 minutes for destroying the cell, then stained with 0.1% Toluidine Blue 0.5 mL/well, and washed by distilled water for three times and photographed under microscopy.

The molecule `COc1ccc(C(=O)Nc2ccc(Cl)cc2F)c(OCc2ccc(F)cc2F)c1` [compound 2c, N-(4-chloro-2-fluorophenyl)-2-((2,4-difluorobenzyl)oxy)-4-methoxybenzamide] returned a melting point of 134 to 135 °C. For the same molecule, the “Osteoclastogenesis: TRAP+ MNCS at 10 μM (%)” value (from here on “Osteoclastogenesis … (%)”) in the data set with RAW 264.7 cells [1] is reported as 68.7 ± 4.6%. Besides, in the data set on RAW 264.7 cells [2], the “Cell viability: Survival rate at 10 μM (%)” value (shortened to “Cell viability … (%)”) was 107.3 ± 4.4%. In addition, the CC50 at 24 hr in data set [3] was above 40 µM.
For `COc1ccc(C(=O)Nc2ccc(F)cc2F)c(OCc2ccc(F)cc2F)c1` [compound 4c, 2-((2,4-difluorobenzyl)oxy)-N-(2,4-difluorophenyl)-4-methoxybenzamide] the same measures were 131 to 132 °C, 66.2 ± 8.1%, 106.0 ± 8.8% and above 40 µM.
In turn, `COc1ccccc1C(=O)Nc1ccc(F)cc1F` [compound 3b, N-(2,4-difluorophenyl)-2-methoxybenzamide] gave a melting point of 86 to 87 °C. The “Osteoclastogenesis … (%)” value in the data set on RAW 264.7 cells [1] is on record as 89.1 ± 5.1%. The “Cell viability … (%)” value with RAW 264.7 cells [2] stood at 108.5 ± 4.0%. Further, the CC50 at 24 hr in data set [3] is above 40 µM.
Regarding `COc1ccc(C(=O)O)c(O)c1` [2-hydroxy-4-methoxy-benzoic acid, reference compound], in the data set with RAW 264.7 cells [1], the “Osteoclastogenesis … (%)” value was 79.6 ± 8.3% and the “Inhibitory activity on osteoclastogenesis (in words)” value was “did not perform significant inhibitory activity”. The “Cell viability … (%)” value with RAW 264.7 cells [2] was determined as 99.4 ± 7.6%. Further, in data set [3], the CC50 at 24 hr is above 40 µM.
As for `COc1ccc(C(=O)Nc2ccc(F)cc2F)c(O)c1` [compound 4a, N-(2,4-difluorophenyl)-2-hydroxy-4-methoxybenzamide], the melting point fell in the range of 180 to 181 °C. In the data set with RAW 264.7 cells [1], the “Osteoclastogenesis … (%)” value is 41.3±8.6%. In addition, in data set [3], the viability at 24 hr, 10 µM came to 105 ± 4.7% and the CC50 at 24 hr is above 40 µM.
Regarding `O=C(Nc1ccc(Cl)cc1F)c1ccccc1OCc1ccc(F)cc1F` [compound 1c, N-(4-chloro-2-fluorophenyl)-2-((2,4-difluorobenzyl)oxy)benzamide], the melting point was 121 to 122 °C. Further, in the data set on RAW 264.7 cells [1], the “Osteoclastogenesis … (%)” value worked out at 74.6 ± 6.2%. Further, the “Cell viability … (%)” value in the data set with RAW 264.7 cells [2] is 107.2 ± 4.5%. The CC50 at 24 hr in data set [3] is above 40 µM.
The molecule `O=C(Nc1ccc(Cl)cc1F)c1ccccc1O` [compound 1a, N-(4-chloro-2-fluorophenyl)-2-hydroxybenzamide] showed a melting point of 184 to 185 °C. In addition, the “Osteoclastogenesis … (%)” value with RAW 264.7 cells [1] is given as 49.4±5.4%. In addition, in data set [3], the viability at 24 hr, 10 µM turned out to be 93 ± 3.1% and the CC50 at 24 hr amounted to 21.3 ± 3.4 µM.
With `O=c1oc2ccccc2c(=O)n1-c1ccc(Cl)cc1F` [compound 1d, 3-(4-chloro-2-fluorophenyl)-2H-benzo[e][1,3]oxazine-2,4(3H)-dione], in the data set on RAW 264.7 cells [1], the “Osteoclastogenesis … (%)” value is on record as 3.4±2.1% and the “Inhibition of osteoclast differentiation, TRAP staining (FIG. 1 C, D, E)” value (from here on “Inhibition of osteoclast differentiation”) is recorded as “significant inhibition of differentiation”. Further, the “Bone resorption, erosion of bone slices (FIG. 2 C, D)” value with RAW 264.7 cells [4] was “the resorption hole was reduced”. Also, the “Cell viability … (%)” value in the data set on RAW 264.7 cells [2] is given as 97.9 ± 2.0%. Further, the CC50 at 24 hr in data set [3] is above 40 µM.
Take `COc1ccc(C(=O)Nc2ccc(Cl)cc2F)c(OC)c1` [compound 2b, N-(4-chloro-2-fluorophenyl)-2,4-dimethoxybenzamide]: the melting point fell in the range of 155 to 156 °C. For the same molecule, the “Osteoclastogenesis … (%)” value in the data set on RAW 264.7 cells [1] was 60.2 ± 3.6%. In the data set with RAW 264.7 cells [2], the “Cell viability … (%)” value came to 52.9 ± 2.8% and the CC50 is 13.6 ± 1.2 µM.
The molecule `O=C(Nc1ccc(F)cc1F)c1ccccc1O` [compound 3a, N-(2,4-difluorophenyl)-2-hydroxybenzamide] displayed a melting point of 186 to 187 °C. Also, the “Osteoclastogenesis … (%)” value in the data set on RAW 264.7 cells [1] was determined as 85.9 ± 6.2%. Besides, in data set [3], the viability at 24 hr, 10 µM amounted to 104 ± 3.6% and the CC50 at 24 hr was above 40 µM.
For `COc1ccc2c(=O)n(-c3ccc(F)cc3F)c(=O)oc2c1` [compound 4d, 3-(2,4-difluorophenyl)-7-methoxy-2H-benzo[e][1,3]oxazine-2,4(3H)-dione] the same measures were 138 to 139 °C, 87.9 ± 9.1%, 102 ± 9.1% and above 40 µM.
As to `O=c1oc2ccccc2c(=O)n1-c1ccc(F)cc1F` [compound 3d, 3-(2,4-difluorophenyl)-2H-benzo[e][1,3]oxazine-2,4(3H)-dione], the melting point lay within 182 to 183 °C. In the data set on RAW 264.7 cells [1], the “Osteoclastogenesis … (%)” value is given as 69.8 ± 7.7%. Besides, in data set [3], the viability at 24 hr, 10 µM worked out at 105 ± 6.3% and the CC50 at 24 hr is above 40 µM.
In the case of `COc1ccc(C(=O)Nc2ccc(Cl)cc2F)c(O)c1` [compound 2a, N-(4-chloro-2-fluorophenyl)-2-hydroxy-4-methoxybenzamide], the melting point fell in the range of 186 to 187 °C. In the data set on RAW 264.7 cells [1], the “Osteoclastogenesis … (%)” value is reported as 23.8±3.4% and the “Inhibition of osteoclast differentiation” value was “significant inhibition of differentiation”. The “Bone resorption, erosion of bone slices (FIG. 2 C, D)” value with RAW 264.7 cells [4] is listed as “the resorption hole was reduced”. In addition, in the data set on RAW 264.7 cells [2], the “Cell viability … (%)” value worked out at 103.0 ± 2.8% and the CC50 was determined as 32.3 ± 4.9 µM.
Regarding `COc1ccc2c(=O)n(-c3ccc(Cl)cc3F)c(=O)oc2c1` [compound 2d, 3-(4-chloro-2-fluorophenyl)-7-methoxy-2H-benzo[e][1,3]oxazine-2,4(3H)-dione], the melting point fell in the range of 203 to 204 °C. In the data set with RAW 264.7 cells [1], the “Osteoclastogenesis … (%)” value is given as 36.0±1.8% and the “Inhibition of osteoclast differentiation” value was “significant inhibition of differentiation”. Also, the “Cell viability … (%)” value in the data set on RAW 264.7 cells [2] was 100.5 ± 2.4%. The CC50 at 24 hr in data set [3] is above 40 µM.
In turn, `COc1ccccc1C(=O)Nc1ccc(Cl)cc1F` [compound 1b, N-(4-chloro-2-fluorophenyl)-2-methoxybenzamide] came in with a melting point of 111 to 112 °C. In addition, in the data set on RAW 264.7 cells [1], the “Osteoclastogenesis … (%)” value came out at 86.0 ± 9.9%. The “Cell viability … (%)” value with RAW 264.7 cells [2] amounted to 101.8 ± 4.5%. For the same molecule, the CC50 at 24 hr in data set [3] is above 40 µM.
`COc1ccc(C(=O)Nc2ccc(F)cc2F)c(OC)c1` [compound 4b, N-(2,4-difluorophenyl)-2,4-dimethoxybenzamide] came in with a melting point of 138 to 139 °C. For the same molecule, the “Osteoclastogenesis … (%)” value with RAW 264.7 cells [1] is reported as 93.0 ± 7.7%. For the same molecule, the “Cell viability … (%)” value in the data set on RAW 264.7 cells [2] was 102.5 ± 9.3%. Further, the CC50 at 24 hr in data set [3] is above 40 µM.
In the case of `O=C(O)c1ccccc1O` [Salicylic acid, reference compound], the “Inhibitory activity on osteoclastogenesis (in words)” value in the data set with RAW 264.7 cells [1] was “did not perform significant inhibitory activity”. In data set [3], the CC50 at 24 hr was above 40 µM.
Turning to `O=C(Nc1ccc(F)cc1F)c1ccccc1OCc1ccc(F)cc1F` [compound 3c, 2-((2,4-difluorobenzyl)oxy)-N-(2,4-difluorophenyl)benzamide], the melting point was 135 to 136 °C. Besides, in the data set with RAW 264.7 cells [1], the “Osteoclastogenesis … (%)” value is given as 97.6 ± 6.0%. Also, the “Cell viability … (%)” value in the data set on RAW 264.7 cells [2] was 101.1 ± 3.2%. For the same molecule, the CC50 at 24 hr in data set [3] is above 40 µM.
